The subject of experiment [1] is monkey kidney epithelial cells of the BSC-1 line. The experiment is described as follows: Growth-promoting (mitogenic) activity: number of cells in BSC-1 cultures counted four days after addition. The experiment is classed as cell-based, African green monkey. As to conditions: for mitogenic activity on BSC-1 cells (in words): peptide 0.5 to 20 μg/ml; for mitogenic activity on BSC-1 cells (in words) / stimulation of growth in the presence of the 14-Ser peptide: four days; for EC50: read-out: Growth-Stimulation K½; for stimulation of growth (increase in cell number compared to control at four days): agent alone at maximal mitogenic concentration (14-Ser 0.5 μg/ml; EGF, IGF-I 50 ng/ml; acidic FGF 100 pg/ml; basic FGF 1,000 pg/ml; vasopressin 75 pg/ml; K 10.4 mM; Na 180 mM); for stimulation of growth in the presence of the 14-Ser peptide: mitogenic signal at maximal concentration plus 14-Ser peptide 0.5 μg/ml. The method, then:
For the assay, cells were detached from the dish with a solution of trypsin and an aliquot was counted in a hemocytometer.
Nontransformed monkey kidney epithelial cells of the BSC-1 line were grown to confluence in Dulbecco's modified Eagle's medium containing 1% calf serum and […] in 55-mm culture dishes at 38° C. in a CO2 incubator. When cells achieved a density of about 10^6 per dish, the spent medium was removed and replaced with fresh medium containing 0.5% calf serum and the 14-amino acid peptide (0.5 μg/ml). Additions of each of the mitogenic signals at maximal concentration were made to the culture medium. Four days later the number of cells in each culture was counted in a hemocytometer. Values obtained were the mean of 3 separate cultures.
Nontransformed monkey kidney epithelial cells of the BSC-1 line were grown to confluence in Dulbecco's modified Eagle's medium containing 1% calf serum and 1.6 μM biotin at 38° C. in a CO2 incubator. When cells achieved a density of about 10^6 per dish, the spent medium was removed and replaced with fresh medium containing 0.5% calf serum and different amounts of the two peptides. Four days later the number of cells in each culture was counted. Each value is the mean of 3 separate cultures.
To delineate the sequence of the smallest peptide that could stimulate renal cell growth, synthetic peptides of different lengths were prepared (see below), and purified by reversed-phase HPLC on a C18 column.
The peptide of interest was then purified on a reversed-phase C18 column HPLC as described herein using a gradient of 1-80% acetonitrile in 0.1% trifluroacetic acid (TFA). The purified peptide was then lyophilized to remove the acetonitrile and TFA and the lyophilized powder was weighed, dissolved in buffer and added to the culture medium to measure its effect on the growth of monkey kidney epithelial cells as described herein. […] A value termed the K1/2, was used.

Experiment [2] concerns BSC-1 cells. The experiment is described as follows: Inhibition of WGF and WGF-derived peptide mitogenesis in BSC-1 cells. The experiment is classed as cell-based, African green monkey. As to conditions: for effect of pentamer on growth stimulation by hexamer YPQGNH: pentamer added to culture medium, hexamer added at the same time or afterwards. An excerpt:
In these studies the pentamers, PQGNH (SEQ ID NO: 36) or YPQGN (SEQ ID NO: 3) were synthesized, purified by HPLC and then assayed for growth-promoting activity. […] Because the pentamers are not mitogenic, when they bind to the site, growth is not observed. After pentamers are bound to the site, the pentamers appear to prevent the hexapeptide from gaining access to the membrane.
Transforming growth factor (TGF)-β2 is an autocrine growth inhibitor secreted by BSC-1 cells that limits proliferation in culture. Exogenous TGF-β2 was added to the culture medium to determine its capacity to inhibit the growth-promoting effect of 14-Ser. TGF-β2 at a concentration of 1 ng/ml was sufficient to abolish the 25% stimulation of growth induced by 14-Ser. At a TGF-β2 concentration of 2 ng/ml, growth was inhibited by 30% in the presence or absence of 14-Ser; at 10 ng/ml, inhibition was 60%.
Because TGF-β2 inhibits proliferation induced by diverse mitogens, a more specific inhibitor was sought. […] Cells were preincubated for 30 minutes with the pentapeptide YPQGN (SEQ ID NO: 3). The culture medium was then aspirated, the monolayer was rinsed, fresh medium was added, and the number of cells counted 4 days later. Preincubation of cells with YPQGN (SEQ ID NO: 3) inhibited the mitogenic effect of the 6-amino acid peptide.

In experiment [3] the test system is rats with mercuric chloride-induced acute renal failure. The experiment in a line: Mercuric chloride-induced acute renal failure in rats: survival and renal function. The format is in vivo, rat. An excerpt: Nephrotoxic and ischemic acute renal failure (ARF) induced experimentally in rats have long been used to model this syndrome in humans. […] Male rats weighed 200-225 gm at the start of the experiment. This dose was used because preliminary experiments indicated it results in survival of 25-50% of the animals 7 days later. […] An increase in serum creatinine concentration signals a decline in renal function because the injured kidney is unable to excrete endogenous creatinine in the urine so it accumulates in the blood.
The synthetic peptide […] (14-Ser) (SEQ ID NO: 15) (dissolved in sterile 0.01% bovine serum albumin in phosphate-buffered saline) was injected subcutaneously into rats to determine its effect on survival, recovery of renal fucntion, and stimulation of DNA synthesis. Multiple different peptides were studied including 14-Ser, […] (14-mer) (SEQ ID NO: 39), […] (16-mer) (SEQ ID NO: 4) […] (11-mer) (SEQ ID NO: 6), and […] (11-mer) (SEQ ID NO: 41). Different concentrations and times of administration were tested and compared.
Acute tubular necrosis was induced in 44 rats by the subcutaneous (s.c.) injection of mercuric chloride, and a single dose of 14-ser was administered s.c. 1 hour afterwards. Different amounts of the peptide were given to assesses its capacity to affect the outcome. Survival 7 days later was about twice as high in animals given 100-150 μg of peptide (63%) than in rats given 0-75 μg peptide (29%).
To determine the effect of the peptide on survival and recovery of renal function, acute tubular necrosis was induced in 59 rats; 29 received 14-Ser (100 μg/rat) and 30 received an equal volume of the vehicle s.c. 1 hour after administration of mercuric chloride. Enhanced survival (top panel) and renal functional recovery (bottom panel) of rats give a WGF-derived peptide after mercuric chloride-induced acute tubular necrosis are shown in FIG. 2A and FIG. 2B. Mercuric chloride was injected subcutaneously into each of the 59 rats, and 1 hour later 100 μg of WGF peptide (14-Ser) (n=29 rats) or the vehicle […] was given. Survival was greater in rats given the peptide than in animals receiving the vehicle as early as day 3 after administration of mercuric chloride. Blood was obtained from the tail vein on the days indicated, and serum creatinine concentration was measured. […] On days 2, 3 and 4, the lower creatinine concentration in peptide-treated rats indicates accelerated recovery of kidney function.
Experimental ARF was induced in rats by subcutaneous injection of mercuric chloride. The synthetic peptide […] […] In one experiment a total of 17 rats were injected with a dose of mercuric chloride shown to induce ARF. The different amounts of the peptide (known to stimulate growth of kidney cells in culture) were injected into the animals to assess capacity to improve the outcome. […] In contrast, two of three rats given 100 micrograms of peptide were alive, as were five of six given 200 micrograms. In summary, none of eight rats (0%) given up to 50 micrograms of peptide survived, whereas seven of nine (78%) given 100-200 micrograms did. Thus, the 11-mer WGF peptide improves survival in nephrotoxic ARF.
[…] Four days later, 63% of rats given the 14-Ser peptide were alive compared to 25% of animals receiving the vehicle (chi squared, P-0.0499); 50% of rats receiving EGF were alive (chi squared, P=N.S.). On day 5, 50% of rats given EGF were alive, compared to 12.5% of animals given the vehicle (chi squared, P=0.0436). […] These observations indicate that the 14-Ser peptide and EGF given after renal injury are similar in their ability to improve survival from the ARF syndrome.

In experiment [4] the test system is BSC-1 cells. The experiment in a line: Time of contact with cells required to commit them to accelerated growth (washout, count at four days). The format is cell-based, African green monkey. The method, then: Confluent monolayers of BSC-1 cells are prepared as herein and exposed to the 14-Ser peptide (0.5 μg/ml) for different amounts of time (0 to 30 minutes). At the end of the defined exposure period, culture medium containing the mitogen was aspirated, the monolayer was rinsed to remove non-adherent peptide, and fresh medium was added. Four days later the number of cells in the culture was counted.
In these experiments a solution containing the peptide of interest was added to the cell monolayer; culture medium was then aspirated at a specified time thereafter. Then fresh medium without the peptide was added and the number of cells was counted four days later.

Setting [5] is: peptide alone, BSC-1 cells, 4 days in culture.

Where “and” joins values, the source holds several entries; their conditions need not be identical. Equal entries are not always repeated. Entries after “also recorded” stand apart in the source; their conditions may differ. Where two headings read alike, the source gives them in different places. No end group written: not given here.

With QPYPQG, the “mitogenic activity on BSC-1 cells (in words)” value in experiment [1] is on record as “not mitogenic”.
For the molecule FPEGNH, the EC50 in experiment [1] (setting [5]) came to 2720 nM.
As to PQGNH, the “effect of pentamer on growth stimulation by hexamer YPQGNH” value with BSC-1 cells [2] was “blocked”. Also, the “mitogenic activity on BSC-1 cells (in words)” value in experiment [1] was “Neither was mitogenic; also recorded: do not alter growth”.
For the molecule AQPYPEGNHEA, the “rats dead three days later” value in experiment [3] (50 micrograms s.c. two hours after mercuric chloride) is given as “three of three”. Moreover, the “survival three days later” value in experiment [3] (100-200 micrograms of peptide, nine rats) came to 78%; in experiment [3] (up to 50 micrograms of peptide (incl. saline alone), eight rats), 0%. Also, the “rats alive three days later” value is reported as “two of three” in experiment [3] (100 micrograms s.c. two hours after mercuric chloride) and “five of six” in experiment [3] (200 micrograms s.c. two hours after mercuric chloride). In addition, the EC50 in experiment [1] (setting [5]) amounted to 206 nM.
For the molecule “insulin-like growth factor-I [IFG-I, reference compound]”, in experiment [1], the “stimulation of growth (increase in cell number compared to control at four days)” value is listed as 20% and the “stimulation of growth in the presence of the 14-Ser peptide” value (shortened to “stimulation … of the 14-Ser peptide”) was 38%.
For YPQGNHEASYG, the EC50 in experiment [1] (+ heparin (1 μg/ml)) and in experiment [1] (setting [5]) was 166 nM each time.
For the molecule “Pentosan polysulfate [reference compound]”, the “effect on activity of WGF” value with BSC-1 cells [2] is “blocked”.
For YPQGNH [YPQGNH-amide], in experiment [1] (setting [5]), the EC50 was 8850 nM.
For `Nc1ncnc2c1ncn2[C@@H]1O[C@H](COP(=O)(O)O)[C@@H](O)[C@H]1O` [adenosine monophosphate, reference compound], the commitment time in the experiment on BSC-1 cells [4] was 14 h.
As for “acidic fibroblast growth factor [acidic FGF, reference compound]”, in experiment [1], the “concentration equivalent in mitogenic potency to partially-purified WGF” value stood at 0.02 ng/mL, the “effect of keratan sulfate on mitogenic activity” value is on record as “no effect”, the “stimulation of growth (increase in cell number compared to control at four days)” value was found to be 17% and the “stimulation … of the 14-Ser peptide” value was found to be 44%. Further, the “effect of heparin on mitogenic activity” value in experiment [1] (heparin added to BSC-1 cells with the factor) was “inhibits”. Also, in experiment [1] (maximal concentrations, 11-mer with wound conditioned buffer), the “combined mitogenic effect with WGF (additivity)” value was “additive”.
Consider AQPYPQGNHEATSSSF, for which the EC50 in experiment [1] (setting [5]) stood at 218 nM.
Consider AQPYPQGNHEAAYG, for which the EC50 worked out at 54 nM in experiment [1] (+ keratan sulfate (2 μg/ml for 5 minutes prior to peptide, b158; 10 μg/ml)) and 199 nM in experiment [1] (setting [5]).
YPEGKH: the EC50 in experiment [1] (setting [5]) was 14100 nM.
In the case of YPQGN, in the experiment with BSC-1 cells [2], the “effect of preincubation on mitogenic effect of partially-purified Wound Growth Factor” value is reported as “completely abolished” and the “effect of pentamer on growth stimulation by hexamer YPQGNH” value was “blocked”. For the same molecule, the “effect of preincubation on mitogenic effect of the 6-amino acid peptide YPQGNH” value in the experiment on BSC-1 cells [2] (cells preincubated 30 minutes, rinsed, count 4 days later) is on record as “inhibited”. In the experiment with BSC-1 cells [2] (preincubation for 10 or 30 minutes), the “effect of preincubation on growth-promoting effect of the 14-Ser peptide” value is listed as “completely blocked”. For the same molecule, the “mitogenic activity on BSC-1 cells (in words)” value in experiment [1] is “Neither was mitogenic; also recorded: do not alter growth”.
In the case of `[Cl-].[Na+]` [sodium chloride, reference compound], in experiment [1], the “stimulation of growth (increase in cell number compared to control at four days)” value was 25% and the “stimulation … of the 14-Ser peptide” value came to 41%.
For the molecule AQPYPEGNHEASYG, the EC50 in experiment [1] (setting [5]) was determined as 128 nM.
For the molecule “YPQGNH [NH2-tyrosine-proline-glutamine-glycine-asparagine-histidine-COOH]”, the EC50 in experiment [1] (setting [5]) was 352 nM and 332 nM.
With “MAPS peptide: 11-mer AQPYPQGNHEA linked to a branched polylysine core, four branches each ligated to one 11-mer molecule (also: four copies linked to a branched polylysine core (MAPS))”, the “mitogenic activity on BSC-1 cells (in words)” value in experiment [1] was “stimulated DNA synthesis and proliferation”.
YPEGDH: in experiment [1] (setting [5]), the EC50 was 11000 nM.
Consider `[Cl-].[K+]` [potassium chloride, reference compound], for which, in experiment [1], the “stimulation of growth (increase in cell number compared to control at four days)” value was determined as 18% and the “stimulation … of the 14-Ser peptide” value came to 35%.
As for “WAVGHLM [WAVGHLM-amide, reference compound]”, the EC50 in experiment [1] (setting [5]) was approximately 10000 nM.
Take YPRGNH [reference compound]: in experiment [1], the “stimulation of growth (increase in cell number compared to control at four days)” value was 10% and the “mitogenic activity on BSC-1 cells (in words)” value is reported as “not mitogenic to the same extent”.

B1: TGF-β2: autocrine growth inhibitor secreted by BSC-1 cells (protein, UniProt P61811 303-414, looked up)
Transforming growth factor …: ALDAAYCFRNVQDNCCLRPLYIDFKRDLGWKWIHEPKGYNANFCAGACPYLWSSDTQHSRVLSLYNTINPEASASPCCVSQDLEPLTILYYIGKTPKIEQLSNMIVKSCKCS
With B1, in the experiment with BSC-1 cells [2] (TGF-β2 1 ng/ml), the “effect on the 25% stimulation of growth induced by 14-Ser” value is listed as “abolish”. The growth inhibition in the experiment on BSC-1 cells [2] (TGF-β2 2 ng/ml, in the presence or absence of 14-Ser) is 30%; with BSC-1 cells [2] (TGF-β2 10 ng/ml), 60%.

Source of the values: patent publication US7550438B2, “Methods for production of growth-promoting proteins and peptides for kidney epithelial cells” (The University of Chicago, priority 1997, dated 2009).
